Results on two molecules are retold here after ChEMBL document CHEMBL1143717, “Biologically active natural products from Mongolian medicinal plants Scorzonera divaricata and Scorzonera pseudodivaricata” (J Nat Prod, 2007).

For this assay, the system named is Radical scavenging activity. In words: Antioxidant activity assessed as DPPH radical scavenging activity. It is filed as functional.

The structures appear in SMILES notation. Activity calls are given as the source filed them. The calls are words filed in the database; no cut-off is given here.

Turning to `CCCCCC(=O)O[C@H]1[C@H](Oc2cc(CC(=O)CCc3ccc(O)cc3)c(O)c(C(=O)O)c2)O[C@H](CO)[C@@H](O)[C@@H]1O`, the outcome was inactive.

Turning to `CC1=CC(=O)C2=C(C)C[C@H](OC(=O)CCc3ccc(OC4O[C@H](CO)[C@@H](O)[C@H](O)[C@H]4O)cc3)[C@@H]3[C@H](OC(=O)[C@H]3C)[C@@H]12` (some centres not stated), the outcome was inactive.
